Experimental data: patent EP3650451A1, “COMPOUNDS AND THEIR USES AS FLUORESCENT PROBES” (Consejo Superior de Investigaciones Cientificas, priority 2017, dated 2019)

Assays:
SCC38 cells [1] = assay: Stereospecificity of the mitochondrial labeling, flow cytometry; type: cell-based, human; settings: all the selected concentrations, 30 min incubation
Description: • Fig. 1. In vivo labeling of SCC38 cells with compound 4 at different concentrations (50, 100 and 500 nM). Scale bar: 10 µm • Fig. 2. Flow cytometry studies in SCC38 and HeLa cell lines labeled with compound 4 and Mito Tracker® Red. Histograms wherein fluorescence intensity vs number of events is represented for each of the staining times (5, 15 and 30 min) and control (Ctrl), for the SCC38 and HeLa cells and for each of the two markers. • Fig. 3. Absorption (A) and fluorescence (B) spectra, normalized to molar absorption and fluorescence quantum yield of probe 4 in different solvents; chloroform (green), acetone (black), acetonitrile (red), ethanol (blue) and water (gray). • Fig. 4. […] (A) Flow cytometry analysis of SCC38 cells incubated in the presence (+FCCP) or absence (-FCCP) of FCCP 60 µM for 3 h before staining with 20 nM of 4 or 0.5 nm of MitoTracker. The data represent the mean fluorescence intensity (MFI) of the stained cells. […] The graphs show the fluorescence profiles of the regions of interest indicated with white lines in the right-hand panels. […] The data represent the mean fluorescence intensity (MFI) of the stained cells (upper panels) and representative images of the cytometry profiles (lower panels). • Fig. 7. […] (B) The data represent the mean fluorescence intensity (MFI) of the labeled cells. […]

SCC38 cells [2] = assay: Inhibition of mitochondrial staining by (R)-palmitoylcarnitine (CACT substrate), flow cytometry; type: cell-based, human; settings: co-incubation, probe 50 nm, (R)-palmitoylcarnitine 100, 250 and 500 nM
Description: The SCC38 cells were co-incubated with the indicated concentrations of (R)-palmitoylcarnitine and 50 nM of 4 (A) or 50 nM of MitoTracker (B) before analyzing by flow cytometry. The data represent the mean fluorescence intensity (MFI) of the stained cells (upper panels) and representative images of the cytometry profiles (lower panels). • Fig. 7.
To test if CACT was in fact involved in the channeling of 4 to the mitochondrial matrix, we firstly studied the effect of (R)-(+)-palmitoylcarnitine, a natural CACT substrate, in cell labeling by 4.

SCC38 cells [3] = assay: Labeling in the presence of FCCP (depolarized mitochondrial membrane), flow cytometry; type: cell-based, human; settings: 60 µM FCCP for 3 h at 37 °C before staining; 20 nM of 4 or 0.5 nM of MitoTracker
Description: • Fig. 1. In vivo labeling of SCC38 cells with compound 4 at different concentrations (50, 100 and 500 nM). Scale bar: 10 µm • Fig. 2. Flow cytometry studies in SCC38 and HeLa cell lines labeled with compound 4 and Mito Tracker® Red. Histograms wherein fluorescence intensity vs number of events is represented for each of the staining times (5, 15 and 30 min) and control (Ctrl), for the SCC38 and HeLa cells and for each of the two markers. • Fig. 3. Absorption (A) and fluorescence (B) spectra, normalized to molar absorption and fluorescence quantum yield of probe 4 in different solvents; chloroform (green), acetone (black), acetonitrile (red), ethanol (blue) and water (gray). • Fig. 4. […] (A) Flow cytometry analysis of SCC38 cells incubated in the presence (+FCCP) or absence (-FCCP) of FCCP 60 µM for 3 h before staining with 20 nM of 4 or 0.5 nm of MitoTracker. The data represent the mean fluorescence intensity (MFI) of the stained cells. (B) Microscopy analysis of SCC38 cells pretreated or not with FCCP before co-staining with 20 nM of 4 and 0.5 nm of MitoTracker. The graphs show the fluorescence profiles of the regions of interest indicated with white lines in the right-hand panels. Scale bars: 10 µm). • Fig. 5. […] The data represent the mean fluorescence intensity (MFI) of the stained cells (upper panels) and representative images of the cytometry profiles (lower panels). • Fig. 7. […] (B) The data represent the mean fluorescence intensity (MFI) of the labeled cells.
The labeling was analyzed by flow cytometry in the presence of carbonyl cyanide-p-(trifluoromethoxy)phenylhydrazone (FCCP), a protonophore used to reduce the mitochondrial membrane potential (ΔΨm) through depolarization of the mitochondrial membrane. […] Indeed, the suppression of dye-mitochondria electrostatic attraction as a passive labeling mechanism reduces the concentration of the dye in the cell organelle and, thus, the probability and extent of the fluorescence deactivation processes, with the ensuing increase in their efficiency. […]

SCC38 cells [4] = assay: Co-localization by co-staining with MitoTracker Red, fluorescence microscopy of live cells; type: cell-based, human; settings: co-staining, compound 4 50 nM, MitoTracker® Red 25 nM, 30 minutes
Description: (§1) The cell assays were carried out on two human cell lines: SCC38 and HeLa. The SCC38 line is derived from human laryngeal epidermoid carcinoma patients, while HeLa, the first human cell line established in culture, is derived from cervical cancer. The culture medium used for both cell lines was DMEM (Dulbecco's Modified Eagle's Medium) supplemented with 10% of fetal bovine serum (FBS), 100 U/mL of penicillin, 200 µg/mL of streptomycin, 100 µmol/L of non-essential amino acids and 2 mmol/L of glutamine. The cultures were incubated at 37 °C and 5% of CO2.
These cell lines were stained with the fluorescent probes synthesized following the following protocol: 30,000-50,000 SCC38 cells were plated on 24-well glass-bottomed plates and cultured to 70% confluence. The culture medium was then removed from the well and washed at least three times with DMEM medium without additives. Next, 1 mL of DMEM and the corresponding fluorescent compound was added to the well. The cells were incubated at 37 °C for 30 minutes, after which the medium was removed and newly washed with DMEM. Lastly, complete medium was added and the cells were observed under the microscope. Microscopy analysis was performed using a Zeiss Axio Observer Z1 microscope with AxioCam MRM and ApoTome 2 (Carl Zeiss, Germany) with different 40X 63X oil immersion objectives. The cells were also stained with MitoTracker® Red CMXRos (Thermo Fisher), following the manufacturer's instructions, with the aim of carrying out comparative studies with the new fluorescent markers synthesized herein. Initially, both compounds 3 and 4 were used at a concentration of 50 nM, and staining time was also 30 minutes.
In order to confirm the specificity of the mitochondrial labeling, co-localization studies were carried out by co-staining with the commercial mitochondrial marker MitoTracker® Red in the cell line. Compound 4 was used at a concentration of 50 nM and MitoTracker® Red at 25 nM. Both compounds were added simultaneously and incubated for 30 minutes.

HeLa = assay: Kinetics of cell labeling by flow cytometry; type: cell-based, human; settings: 50 nM, staining times 5, 15 and 30 min
Description: as §1
(§2) The kinetics of cell labeling with 4 was studied by flow cytometry with the SCC38 and HeLa cell lines, using MitoTracker® Red as a control marker, both at a concentration of 50 nM. The staining times studied were 5, 15, 30 and 45 minutes. After staining, the medium was removed, washed with PBS, trypsinized and the pellet was resuspended in 500 µL of PBS and introduced in the cytometer after filtration. A Beckman Coulter Cytomics FC500 Flow Cytometry Analyzer was used (Scientific-Technical Services, Universidad de Oviedo). Part of the resuspended cells were also plated and observed under the microscope.

SCC38 = assay: Kinetics of cell labeling by flow cytometry; type: cell-based, human; settings: SCC38, 50 nM, staining times 5, 15 and 30 min
Description: as §1, §2

[5] = Photophysical characterization: absorption and fluorescence spectra; type: physicochemical
Description: The photophysical characterization of probes 3 and 4 was carried out analyzing the corresponding absorption and fluorescence spectra in the UV-visible region of the spectrum.
Its photophysical behavior is dependent on the degree of substitution of the BODIPY, since the alkylation of the chromatophore induces sufficient steric hindrance to reduce the free rotation of the 8-mesityl group, a process that entails a significant reduction in fluorescence efficiency. Thus, probe 4 in water stands out for having a high molar absorption coefficient (3.8 × 10^4 M^-1 cm^-1 at 499 nm) and a very efficient fluorescence emission at 511 nm, with a quantum yield of up to 80%.

[6] = Stability in water: time evolution in D2O followed by 1H NMR (hydrolysis); type: physicochemical; settings: 15 mM solution in D2O at 25 °C, read-out: t1/2 (hydrolysis) (converted)
Description: One of the critical factors that conditions the viability and applicability of functional dyes 3 and 4 as fluorescent mitochondrial probes is their stability in water, since these compounds contain two potentially labile B-O bonds linking the fluorophore with the carnitine substituent. This stability was determined analyzing the time evolution of 3 and 4 in a 15 mM solution in D2O at 25 °C using ^1H NMR. This technique makes it possible not only to define their stability, but also to identify the possible degradation products (Diagram 2). Both probes are hydrolyzed, generating free carnitine and the corresponding 4,4-dihydroxy-BODIPY derivatives 5 and 6. [drawing 8]
Compound 3 is quickly hydrolyzed (t1/2 = 10 min); however, the greater substitution of the tetramethylated derivative in 4 gives it greater stability (t1/2 = 6 h), which promotes its use as a fluorescent marker in live cells. Contrary to what might be believed, the generation of free carnitine and of the corresponding BODIPY derivatives 5 and 6 at physiological pH is, indeed, an advantage for its application in cell labels. Thus, (R)-carnitine is incorporated into the mitochondrial metabolism, while the boron of the hydrolyzed BODIPY can covalently bond to poly-hydroxilated molecules (for example, saccharides and glycoproteins), generating cyclic boronic esters. […]

## CC1=CC(C)=[N+]2C1=C(c1c(C)cc(C)cc1C)c1c(C)cc(C)n1[B-]21OC(=O)C[C@@H](C[N+](C)(C)C)O1 (stereo partly drawn) [(S)-4]
SCC38 cells [1]
  fluorescence intensity compared with 4: considerably lower

## ClCc1ccc(C2=c3cc4c5c(c3Oc3c2cc2c6c3CCCN6CCC2)CCC[N+]=5CCC4)cc1 [MitoTracker® Red, reference compound]
SCC38 cells [2]
  effect of (R)-palmitoylcarnitine on fluorescence intensity: only a slight increase of fluorescence
SCC38 cells [3]
  mitochondrial fluorescence of cells treated with FCCP: highly attenuated mitochondrial fluorescence
SCC38 cells [4]
  location of the stain in the mitochondria: concentrated along the edges of the mitochondria
HeLa
  change of staining intensity with incubation time: barely varied upon increasing incubation time
SCC38
  change of staining intensity with incubation time: barely varied upon increasing incubation time

## Cc1cc(C)c(C2=C3C=CC=[N+]3[B-]3(OC(=O)C[C@H](C[N+](C)(C)C)O3)n3cccc32)c(C)c1 (stereo partly shown) [Compound 3]
[5]; Water
  kfl: Radiative decay constant: 0.66 10^8s^- 1
  knr: Non-Radiative decay constant: 1.00 10^8s^- 1
  Δv: Stokes shift: 542 cm⁻¹
  εmax: Molar extinction coefficient at the absorption peak: 4.1 × 10^4 (M^-1 cm^- 1)
  λab: Absorption peak wavelength: 501 nm
  τ: Fluorescence lifetime: 6.00 ns
[5]; Water, excitation at 490 nm
  λfl: Fluorescence peak wavelength: 515 nm
[5]; Water, reference PM567 in ethanol
  φf: Quantum yield: 0.40
[5]; concentrations as high as 10^-4 M
  tendency towards H- or J- type aggregation: not exhibit any tendency towards H- or J- type aggregation
[6]
  half-life at 15000 µM: 10 min
